The values that follow are results of earlier work, collected in patent US20230241042A1, “USE OF PENEHYCLIDINE IN TREATMENT OR PREVENTION OF VISION-IMPAIRING EYE DISEASES” (GRAND LIFE SCIENCES GROUP (WUHAN) CO., LTD., priority 2020, published 2023).

Data set [1] has as its system FDM. To be noted: daily subconjunctival injection.
Data set [2] concerns FDM. The settings on record: in vivo.
Data set [3] relates to chick modeled eyes with visual form deprivation myopia (FDM). To be noted: day 8, 0.01% by mass injected into the vitreous cavity.
In data set [4] the test system is experimental myopia. The settings on record: topical eye drops or oral administration.

As to `C[N+]1(C)CCC(OC(=O)C(c2ccccc2)c2ccccc2)CC1.[I-]` [4-DAMP], the “inhibition of the occurrence of FDM” value in data set [1] was “ineffective”.

For `C[C@@H]1OC(=O)[C@H]2C[C@H]3CCCC[C@@H]3[C@@H](/C=C/[C@H]3CCC[C@H](C)N3C)[C@@H]12` [Himbacine], the “prevention of FDM and retinal damage” value in data set [2] is given as “certain effect in preventing FDM without retinal damage”.

As for `CC[N+](C)(CC)CCOC(=O)C(O)(c1ccccc1)C1CCCCC1` (stereo not shown) [Oxypheneonium, Oxyphenonium], the “prevention of FDM and retinal damage” value in data set [2] is recorded as “certain effect in preventing FDM without retinal damage”.

Take `CN1[C@@H]2CC[C@H]1C[C@@H](OC(=O)C(CO)c1ccccc1)C2` (stereo partly shown) [atropine]: the “prevention of FDM and retinal damage” value in data set [2] was “certain effect in preventing FDM without retinal damage”. Also, in data set [3], the induced myopia is −2.8 D and the ocular axis extension is reported as 0.21 mm.

With `COc1ccccc1CNCCCCCCNCCCCCCCCNCCCCCCNCc1ccccc1OC` [methoctramine], the “inhibition of the occurrence of FDM” value in data set [1] is listed as “ineffective”.

For the compound `CN1CCN(CC(=O)N2c3ccccc3C(=O)Nc3cccnc32)CC1` [pirenzepine], in data set [2], the “prevention of FDM and retinal damage” value is “certain effect in preventing FDM without retinal damage”. In addition, in data set [1], the “inhibition of the occurrence of FDM” value is “could inhibit the occurrence of FDM”.

For the compound `OC(CCN1CCCCC1)(c1ccccc1)C1CCCCC1` (stereo not shown) [trihexyphenidyl], in data set [4], the “prevention of the progression of experimental myopia” value is “not effective in preventing the progression of experimental myopia”.
